Experiments:
Type in all cases: cell-based, human
neutrophils = test: Zymosan phagocytosis by neutrophils (CytoSelect 96-Well Phagocytosis Assay); conditions: 10 ug/ml compound, zymosan 1.5 hrs; FIG. 10
Procedure: Inhibition of phagocytosis was carried out using the CytoSelect™ 96-Well Phagocytosis Assay (Cell Biolabs, Inc). The phagocytic target was zymosan (Saccharomyces cerevisiae), made from yeast cell wall. For this assay, neutrophils were seeded onto fibrinogen coated wells in the presence of inhibitor. Zymosan was added, and reactions incubated for 1.5 hr. Phagocytosis was detected by permeabilizing the cells and adding a detection reagent that was quantified colorimetrically in a plate reader at 405 nm.
Neutrophils were isolated from healthy human donors using Polymorphprep (Axis Shield). Cells were equilibrated for 15 minutes at 37° C. in the presence or absence of 10 ug/ml compound, then plated into 96 well plates previously coated with 2 ng/ml fibrinogen. The subsequent phagocytosis assay was carried out using a commercial phagocytosis assay (CytoSelect™ 96-Well Phagocytosis Assay (Zymosan), Cell Biolabs.) Briefly, cells were incubated with zymosan at 37° C. for 1.5 hrs., fixed with 8% formaldehyde for 5 minutes at room temperature, blocked, permeabilized and detection reagent added which detects phagocytosed zymosan. The reaction was developed by adding a substrate and the resulting colorimetric product was detected in a plate reader. ODs were corrected for relative confluence of the cells based on a visual estimate of confluence. Results are reported as corrected ODs.

[1] = system: syk phosphorylation in integrin/TNF stimulated neutrophils; test: syk phosphorylation in integrin/TNF stimulated neutrophils (in cell Western); conditions: 10 ug/ml compound, TNFα 200 ng/ml, 1 hr; FIG. 11
Procedure: Inhibition of syk phosphorylation was tested using the FACEMaker in cell Western Blot kit from Active Motif (Carlsbad, Calif.). In this assay, freshly isolated neutrophils were plated onto fibrinogen coated wells and stimulated with TNF at 200 ng/ml. After 1 hr., cells were fixed in formaldehyde and the Western Blot performed according to the kit instructions, with the final colorimetric product read in a plate reader. Results were corrected for cell number by subsequent staining of the cells with crystal violet and recording OD at 630 nm.
Neutrophils were isolated from healthy human donors using Polymorphprep (Axis Shield). Cells were equilibrated for 15 minutes at 37° C. in the presence or absence of 10 ug/ml compound. TNFα was added to a concentration of 200 ng/ml and cells dispensed into a 96 well strip plate previously coated with 2 mg/ml fibrinogen at 1×10^6 cells/well. Reactions were incubated at 37° C. for 1 hr., and cells fixed with 4% formaldehyde for 20 minutes at room temperature. […] The reaction was developed using the kit developing solution and the resulting colorimetric product read in a plate reader at 450 nm with a 650 nm reference. […]

[2] = system: TNF/antineutrophil cytoplasmic antibody stimulated neutrophils; test: Respiratory burst in TNF/antineutrophil cytoplasmic antibody stimulated neutrophils (cytochrome c reduction); conditions: 10 ug/ml compound, TNFα 200 ng/ml, anti-MPO or anti-Pr3; FIGS. 5 and 6
Procedure: During the respiratory burst of activated neutrophils, reactive oxygen intermediates such as superoxide anion, hydroxyl radical, and hydrogen peroxide are produced. To determine the ability of compounds to affect syk dependent respiratory burst, superoxide anion production was measured in a microplate assay using the reduction of cytochrome c as a reporter assay. Respiratory burst can be induced through two different syk dependent signaling pathways, integrin mediated and Fc Receptor mediated. Compounds were tested in both pathways.
For respiratory burst assays, neutrophils (1×10^6) were added to microtiter plates that were coated with fibrinogen for integrin signaling or uncoated for Fc receptor signaling. […] At the end of the incubations, reduction of cytochrome c was quantified by measuring absorbance at 550 nm using a microplate reader. […]
(§1) Neutrophils were isolated from healthy human donors using Polymorphprep (Axis Shield). […] Reduction of cytochrome c was measured by reading absorbance at 550 nm with a 490 nm reference in a spectrophotometer. […]
as §1

N#Cc1c(C(F)(F)F)cc(-c2ccc(Br)cc2)nc1SC(C(=O)O)c1ccccc1 (stereo not drawn) [Compound 1, α-[[6-(4-bromophenyl)-3-cyano-4-(trifluoromethyl)-2-pyridinyl]thio]-benzeneacetic acid]
inhibition of zymosan phagocytosis by neutrophils (neutrophils): inhibition
inhibition of syk phosphorylation in integrin/TNF stimulated neutrophils [1]: inhibition
respiratory burst in TNF/antineutrophil cytoplasmic antibody stimulated neutrophils [2]: stimulation

— patent publication US9212143B2, “Small molecule inhibitors of protein kinases” (priority 2010, dated 2015)
